Measured values reported in patent US20230129359A1, “MUSCARINIC RECEPTOR 4 ANTAGONISTS AND METHODS OF USE” (Neurocrine Biosciences, Inc., priority 2020, published 2023).
pKi: −log10 of the molar value.

The molecules below were run against T1, human M4 receptor (Homo sapiens, UniProt P08173) (assay: Radioligand ([3H]N-methylscopolamine) binding assay, membranes from CHO cells expressing human M4 receptor). Conditions: Ki against human M4 receptor; membranes from CHO cells; tritiated N-methylscopolamine 1.5 nM; read-out: K.
T1 construct: expressed in transfected cells; host or cells: CHO cells
T1 sequence (P08173 1-479): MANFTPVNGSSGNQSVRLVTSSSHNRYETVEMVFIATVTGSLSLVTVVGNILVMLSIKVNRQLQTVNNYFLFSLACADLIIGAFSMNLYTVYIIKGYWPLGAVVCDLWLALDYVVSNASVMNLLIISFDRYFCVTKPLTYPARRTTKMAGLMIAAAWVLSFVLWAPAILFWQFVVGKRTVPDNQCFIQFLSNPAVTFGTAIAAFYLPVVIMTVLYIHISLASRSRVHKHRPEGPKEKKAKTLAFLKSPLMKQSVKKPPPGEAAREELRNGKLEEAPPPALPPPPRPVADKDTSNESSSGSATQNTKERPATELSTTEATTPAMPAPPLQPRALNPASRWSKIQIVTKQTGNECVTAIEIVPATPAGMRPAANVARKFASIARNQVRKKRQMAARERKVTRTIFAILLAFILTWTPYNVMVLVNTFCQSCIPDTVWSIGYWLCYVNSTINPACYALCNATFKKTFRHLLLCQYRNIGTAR
How it was run: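 Competition binding used CHO-cell membranes expressing human M4 with 1.5 nM [3H]N-methylscopolamine and twelve compound concentrations ([…]). Incubation was 90 minutes at 37 °C in 50 mM HEPES, 100 mM NaCl, 5 mM MgCl2, 1 mM EDTA, pH 7.4. Bound ligand was collected by filtration onto PEI-treated glass fibre for Ki.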

SMILES | pKi
C[C@@H]1CN(c2ncc(C(F)(F)F)cn2)[C@@H](C)CN1C(=O)OC1(C(F)F)CC2(CN(Cc3ccccc3)C2)C1 [Compound 346, 2-benzyl-6-(difluoromethyl)-2-azaspiro[3.3]heptan-6-yl (2R,5S)-2,5-dimethyl-4-[5-(trifluoromethyl)pyrimidin-2-yl]piperazine-1-carboxylate] | 7.00 to 8.00
C[C@@H]1CN(c2ncc(C(F)(F)F)cn2)[C@@H](C)CN1C(=O)OC1CC2(C1)CN(Cc1ccc(S(C)(=O)=O)cc1)C2 [Compound 501, 2-[(4-methanesulfonylphenyl)methyl]-2-azaspiro[3.3]heptan-6-yl (2R,56S)-2,5-dimethyl-4-[5-(trifluoromethyl)pyrimidin-2-yl]piperazine-1-carboxylate] | 6.00 to 7.00
C[C@@H]1CN(c2nc3ccc(C(F)(F)F)cc3s2)[C@@H](C)CN1C(=O)OC1CC2(C1)CN(Cc1ccc(F)cc1)C2 [Compound 386, 2-[(4-fluorophenyl)methyl]-2-azaspiro[3.3]heptan-6-yl (2R,5S)-2,5-dimethyl-4-[6-(trifluoromethyl)-1,3-benzothiazol-2-yl]piperazine-1-carboxylate] | > 8.00
Cc1nc(C#N)cnc1N1C[C@@H](C)N(C(=O)OC2CC3(C2)CN(Cc2ccccc2)C3)[C@@H](C)C1 [Compound 181, 2-benzyl-2-azaspiro[3.3]heptan-6-yl (2R,6S)-4-(5-cyano-3-methylpyrazin-2-yl)-2,6-dimethylpiperazine-1-carboxylate] | 6.00 to 7.00
C[C@@H]1CN(c2ncc(C(F)(F)F)cn2)CCN1C(=O)OC1CC2(C1)CN(Cc1ccc(F)cc1)C2 [Compound 457, 2-[(4-fluorophenyl)methyl]-2-azaspiro[3.3]heptan-6-yl (2R)-2-methyl-4-[5-(trifluoromethyl)pyrimidin-2-yl]piperazine-1-carboxylate] | 6.00 to 7.00
CC(C)c1cnc(N2C[C@@H](C)N(C(=O)OC3CC4(C3)CN(Cc3ccccc3)C4)[C@@H](C)C2)nc1 [Compound 505, 2-benzyl-2-azaspiro[3.3]heptan-6-yl (2R,6S)-2,6-dimethyl-4-[5-(rpopan-2-yl)pyrimidin-2-yl]piperazine-1-carboxylate] | > 8.00
C[C@@H]1CN(C(=O)NC2CC3(C2)CN(Cc2ccccc2)C3)[C@@H](C)CN1c1ncc(C(F)(F)F)cn1 [Compound 36, (2S,5R)-N-{2-benzyl-2-azaspiro[3.3]heptan-6-yl}-2,5-dimethyl-4-[5-(trifluoromethyl)pyrimidin-2-yl]piperazine-1-carboxamide] | 7.00 to 8.00
COc1ccc2nc(N3C[C@@H](C)N(C(=O)NC4CC5(C4)CN(Cc4ccccc4)C5)[C@@H](C)C3)cnc2c1 [Compound 215, (2R,6S)-N-{2-benzyl-2-azaspiro[3.3]heptan-6-yl}-4-(6-methoxyquinoxalin-2-yl)-2,6-dimethylpiperazine-1-carboxamide] | 7.00 to 8.00
C[C@@H]1CN(c2ncc(C(F)(F)F)cn2)C[C@H](C)N1C(=O)NC1CC2(C1)CN(CCc1ccccc1)C2 [Compound 311, (2R,6S)-2,6-dimethyl-N-[2-(2-phenylethyl)-2-azaspiro[3.3]heptan-6-yl]-4-[5-(trifluoromethyl)pyrimidin-2-yl]piperazine-1-carboxamide] | 6.00 to 7.00
O=C(OC1CC2(C1)CN(Cc1ccccc1)C2)N1C2COCC1CN(c1nc3ccc(C(F)(F)F)cc3s1)C2 [Compound 437, 2-benzyl-2-azaspiro[3.3]heptan-6-yl 7-[6-(trifluoromethyl)-1,3-benzothiazol-2-yl]-3-oxa-7,9-diazabicyclo[3.3.1]nonane-9-carboxylate] | 7.00 to 8.00
C[C@@H]1CN(c2ncc(C(F)(F)F)cn2)C[C@H](C)N1C(=O)NC1CC2(C1)CN(Cc1ccc([N+](=O)[O-])cc1)C2 [Compound 314, (2R,6S)-2,6-dimethyl-N-{2-[(4-nitrophenyl)methyl]-2-azaspiro[3.3]heptan-6-yl}-4-[5-(trifluoromethyl)pyrimidin-2-yl]piperazine-1-carboxamide] | 7.00 to 8.00

Continued, values first:

pKi | SMILES
7.00 to 8.00 | C[C@@H]1CN(c2ncc3ccccc3n2)CCN1C(=O)NC1CC2(C1)CN(Cc1ccccc1)C2 [Compound 213, (2R)-N-{2-benzyl-2-azaspiro[3.3]heptan-6-yl}-2-methyl-4-(quinazolin-2-yl)piperazine-1-carboxamide]
> 8.00 | C[C@@H]1CN(c2nc3cc(F)c(F)cc3s2)[C@@H](C)CN1C(=O)OC1CC2(C1)CN(Cc1ccccc1)C2 [Compound 449, 2-benzyl-2-azaspiro[3.3]heptan-6-yl (2R,5S)-4-(5,6-difluoro-1,3-benzothiazol-2-yl)-2,56-dimethylpiperazine-1-carboxylate]
> 8.00 | [2H]c1c([2H])c([2H])c(C([2H])N2CC3(CC(NC(=O)N4[C@H](C)CN(c5ncc(C(F)(F)F)cn5)C[C@@H]4C)C3)C2)c([2H])c1[2H] (stereo partly drawn) [Compound 274, (2R,6S)-2,6-dimethyl-N-{2-[(^2H5)phenyl(^2H1)methyl]-2-azaspiro[3.3]heptan-6-yl}-4-[5-(trifluoromethyl)pyrimidin-2-yl]piperazine-1-carboxamide]
7.00 to 8.00 | C[C@@H]1CN(c2cnc(C(F)(F)F)cn2)C[C@@H](C)N1C(=O)OC1(C)CC2(CN(Cc3ccccc3)C2)C1 [Compound 356, 2-benzyl-6-methyl-2-azaspiro[3.3]heptan-6-yl (2R,6R)-2,6-dimethyl-4-[5-(trifluoromethyl)pyrazin-2-yl]piperazine-1-carboxylate]
6.00 to 7.00 | C[C@@H]1CN(c2nc3ccc(C#N)cc3s2)[C@@H](C)CN1C(=O)OC1CC2(C1)CN(Cc1ccccc1)C2 [Compound 435, 2-benzyl-2-azaspiro[3.3]heptan-6-yl (2R,5S)-4-(6-cyano-1,3-benzothiazol-2-yl)-2,5-dimethylpiperazine-1-carboxylate]
7.00 to 8.00 | C[C@@H]1CN(c2ncc(C(F)(F)F)cn2)[C@@H](C)CN1C(=O)NC1CC2(C1)CN(Cc1ccc(F)cc1)C2 [Compound 265, (2R,5S)-N-{2-[(4-fluorophenyl)methyl]-2-azaspiro[3.3]heptan-6-yl}-2,5-dimethyl-4-[5-(trifluoromethyl)pyrimidin-2-yl]piperazine-1-carboxamide]
> 8.00 | C[C@@H]1CN(c2nc3ccc(F)cc3s2)[C@@H](C)CN1C(=O)NC1CC2(C1)CN(Cc1ccccc1)C2 [Compound 233, (2R,5S)-N-{2-benzyl-2-azaspiro[3.3]heptan-6-yl}-4-(6-fluoro-1,3-benzothiazol-2-yl)-2,5-dimethylpiperazine-1-carboxamide]
> 8.00 | C[C@@H]1CN(c2nc3cc(F)ccc3s2)[C@@H](C)CN1C(=O)OC1CC2(C1)CN(Cc1ccccc1)C2 [Compound 440, 2-benzyl-2-azaspiro[3.3]heptan-6-yl (2R,5S)-4-(5-fluoro-1,3-benzothiazol-2-yl)-2,5-dimethylpiperazine-1-carboxylate]
7.00 to 8.00 | C[C@@H]1CN(c2ncc3cc(F)ccc3n2)C[C@H](C)N1C(=O)OC1CC2(C1)CN(Cc1ccccc1)C2 [Compound 453, 2-benzyl-2-azaspiro[3.3]heptan-6-yl (2R,6S)-4-(6-fluoroquinazolin-2-yl)-2,6-dimethylpiperazine-1-carboxylate]
> 8.00 | [2H]c1c([2H])c([2H])c(CN2CC3(CC(NC(=O)N4[C@H](C)CN(c5ncc(C(F)(F)F)cn5)C[C@@H]4C)C3)C2)c([2H])c1[2H] [Compound 273, (2R,6S)-N-{2-[(^2H5)benzyl]-2-azaspiro[3.3]heptan-6-yl}-2,6-dimethyl-4-[5-(trifluoromethyl)pyrimidin-2-yl]piperazine-1-carboxamide]
6.00 to 7.00 | C[C@@H]1CN(c2cnc3ccccc3n2)C[C@@H](C)N1C(=O)OC1CC2(C1)CN(Cc1ccccc1)C2 [Compound 185, 2-benzyl-2-azaspiro[3.3]heptan-6-yl (2R,6R)-2,6-dimethyl-4-(quinoxalin-2-yl)piperazine-1-carboxylate]
> 8.00 | C[C@@H]1CN(c2nc3cc(C(F)(F)F)cnc3s2)[C@@H](C)CN1C(=O)OC1CC2(C1)CN(Cc1ccccc1)C2 [Compound 367, 2-benzyl-2-azaspiro[3.3]heptan-6-yl (2R,5S)-2,5-dimethyl-4-[6-(trifluoromethyl)-[1,3]thiazolo[4,3-b]pyridin-2-yl]piperazine-1-carboxylate]
7.00 to 8.00 | C[C@@H]1CN(c2cnc(C(F)(F)F)cn2)C[C@H](C)N1C(=O)OC1(C)CC2(CN(Cc3ccccc3)C2)C1 [Compound 353, 2-benzyl-6-methyl-2-azaspiro[3.3]heptan-6-yl (2R,6S)-2,6-dimethyl-4-[5-(trifluoromethyl)pyrazin-2-yl]piperazine-1-carboxylate]
7.00 to 8.00 | C[C@@H]1CN(c2ncc(C(F)(F)F)cn2)C[C@@H](C)N1C(=O)NCC1CC2(C1)CN(Cc1ccccc1)C2 [Compound 68, (2R,6R)-N-({2-benzyl-2-azaspiro[3.3]heptan-6-yl}methyl)-2,6-dimethyl-4-[5-(trifluoromethyl)pyrimidin-2-yl]piperazine-1-carboxamide]
7.00 to 8.00 | C[C@@H]1CN(c2ncc(C#N)cn2)[C@@H](C)CN1C(=O)NC1CC2(C1)CN(Cc1ccccc1)C2 [Compound 26, (2R,5S)-N-{2-benzyl-2-azaspiro[3.3]heptan-6-yl}-4-(5-cyanopyrimidin-2-yl)-2,5-dimethylpiperazine-1-carboxamide]
